Source: ChEMBL document CHEMBL2073801, “Chlorpyrifos oxon interacts with the mammalian multidrug resistance protein, P-glycoprotein” (J Toxicol Environ Health, 1996)
“Also recorded” adds a separate entry of the source.

What was measured:
[1] = molecular target: ATP-dependent translocase ABCB1 (Homo sapiens, UniProt P08183); assay: TP_TRANSPORTER: ATP hydrolysis in MDR1-expressing Sf9 cells; assay type: functional
[2] = molecular target: Multidrug resistance protein 1a (Rattus norvegicus) (UniProt Q6PSM0); assay: TP_TRANSPORTER: Immunohistochemisty in vivo, liver of Fischer 344 rat; assay type: functional, organism-based
Multidrug resistance protein 1a (Rattus norvegicus), sequence (Q6PSM0 as listed by the source): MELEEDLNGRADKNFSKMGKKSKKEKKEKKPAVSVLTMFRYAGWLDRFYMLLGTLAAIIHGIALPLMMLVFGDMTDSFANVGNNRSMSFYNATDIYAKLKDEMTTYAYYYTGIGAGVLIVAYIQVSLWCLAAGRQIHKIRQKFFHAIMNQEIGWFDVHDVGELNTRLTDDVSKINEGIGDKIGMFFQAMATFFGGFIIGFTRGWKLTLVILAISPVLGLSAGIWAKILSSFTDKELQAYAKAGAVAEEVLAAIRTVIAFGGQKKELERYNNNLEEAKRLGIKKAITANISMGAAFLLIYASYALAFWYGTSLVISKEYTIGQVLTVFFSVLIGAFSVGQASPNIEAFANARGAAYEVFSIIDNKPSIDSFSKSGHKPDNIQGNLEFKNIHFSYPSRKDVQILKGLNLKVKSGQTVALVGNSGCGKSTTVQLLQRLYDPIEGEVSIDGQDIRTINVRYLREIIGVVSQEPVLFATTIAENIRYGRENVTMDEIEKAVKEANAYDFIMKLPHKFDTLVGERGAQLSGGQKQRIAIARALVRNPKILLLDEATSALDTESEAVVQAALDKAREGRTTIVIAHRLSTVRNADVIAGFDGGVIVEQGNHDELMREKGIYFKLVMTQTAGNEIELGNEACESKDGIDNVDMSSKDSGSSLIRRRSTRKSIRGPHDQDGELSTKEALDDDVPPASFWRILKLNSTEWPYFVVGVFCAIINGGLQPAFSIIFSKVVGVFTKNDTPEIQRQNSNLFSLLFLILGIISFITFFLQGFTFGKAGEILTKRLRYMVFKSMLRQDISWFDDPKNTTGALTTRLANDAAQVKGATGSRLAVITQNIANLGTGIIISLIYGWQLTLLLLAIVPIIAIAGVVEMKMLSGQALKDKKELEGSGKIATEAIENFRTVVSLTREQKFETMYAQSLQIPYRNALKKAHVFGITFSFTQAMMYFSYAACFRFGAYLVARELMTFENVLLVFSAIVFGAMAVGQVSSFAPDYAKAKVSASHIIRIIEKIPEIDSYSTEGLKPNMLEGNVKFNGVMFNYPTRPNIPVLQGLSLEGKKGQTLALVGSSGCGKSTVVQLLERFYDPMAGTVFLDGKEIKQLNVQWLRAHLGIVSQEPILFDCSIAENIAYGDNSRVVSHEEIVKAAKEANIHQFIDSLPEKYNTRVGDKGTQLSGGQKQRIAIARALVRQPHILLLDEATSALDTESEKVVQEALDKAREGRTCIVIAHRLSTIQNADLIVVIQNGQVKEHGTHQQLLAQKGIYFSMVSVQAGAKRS

[3] = molecular target: Multidrug resistance protein 1a (Rattus norvegicus) (UniProt Q6PSM0); assay: TP_TRANSPORTER: Immunohistochemisty in vivo, stomach of Fischer 344 rat; assay type: functional, organism-based
[4] = molecular target: Multidrug resistance protein 1a (Rattus norvegicus) (UniProt Q6PSM0); assay: TP_TRANSPORTER: Immunohistochemisty in vivo, kidney of Fischer 344 rat; assay type: functional, organism-based
[5] = molecular target: Multidrug resistance protein 1a (Rattus norvegicus) (UniProt Q6PSM0); assay: TP_TRANSPORTER: Immunohistochemisty in vivo, jejunum of Fischer 344 rat; assay type: functional, organism-based
[6] = molecular target: Multidrug resistance protein 1a (Rattus norvegicus) (UniProt Q6PSM0); assay: TP_TRANSPORTER: Immunohistochemisty in vivo, adrenals of Fischer 344 rat; assay type: functional, organism-based; conditions: Adrenal tissue

ATP-dependent translocase ABCB1, sequence (P08183 whole entry): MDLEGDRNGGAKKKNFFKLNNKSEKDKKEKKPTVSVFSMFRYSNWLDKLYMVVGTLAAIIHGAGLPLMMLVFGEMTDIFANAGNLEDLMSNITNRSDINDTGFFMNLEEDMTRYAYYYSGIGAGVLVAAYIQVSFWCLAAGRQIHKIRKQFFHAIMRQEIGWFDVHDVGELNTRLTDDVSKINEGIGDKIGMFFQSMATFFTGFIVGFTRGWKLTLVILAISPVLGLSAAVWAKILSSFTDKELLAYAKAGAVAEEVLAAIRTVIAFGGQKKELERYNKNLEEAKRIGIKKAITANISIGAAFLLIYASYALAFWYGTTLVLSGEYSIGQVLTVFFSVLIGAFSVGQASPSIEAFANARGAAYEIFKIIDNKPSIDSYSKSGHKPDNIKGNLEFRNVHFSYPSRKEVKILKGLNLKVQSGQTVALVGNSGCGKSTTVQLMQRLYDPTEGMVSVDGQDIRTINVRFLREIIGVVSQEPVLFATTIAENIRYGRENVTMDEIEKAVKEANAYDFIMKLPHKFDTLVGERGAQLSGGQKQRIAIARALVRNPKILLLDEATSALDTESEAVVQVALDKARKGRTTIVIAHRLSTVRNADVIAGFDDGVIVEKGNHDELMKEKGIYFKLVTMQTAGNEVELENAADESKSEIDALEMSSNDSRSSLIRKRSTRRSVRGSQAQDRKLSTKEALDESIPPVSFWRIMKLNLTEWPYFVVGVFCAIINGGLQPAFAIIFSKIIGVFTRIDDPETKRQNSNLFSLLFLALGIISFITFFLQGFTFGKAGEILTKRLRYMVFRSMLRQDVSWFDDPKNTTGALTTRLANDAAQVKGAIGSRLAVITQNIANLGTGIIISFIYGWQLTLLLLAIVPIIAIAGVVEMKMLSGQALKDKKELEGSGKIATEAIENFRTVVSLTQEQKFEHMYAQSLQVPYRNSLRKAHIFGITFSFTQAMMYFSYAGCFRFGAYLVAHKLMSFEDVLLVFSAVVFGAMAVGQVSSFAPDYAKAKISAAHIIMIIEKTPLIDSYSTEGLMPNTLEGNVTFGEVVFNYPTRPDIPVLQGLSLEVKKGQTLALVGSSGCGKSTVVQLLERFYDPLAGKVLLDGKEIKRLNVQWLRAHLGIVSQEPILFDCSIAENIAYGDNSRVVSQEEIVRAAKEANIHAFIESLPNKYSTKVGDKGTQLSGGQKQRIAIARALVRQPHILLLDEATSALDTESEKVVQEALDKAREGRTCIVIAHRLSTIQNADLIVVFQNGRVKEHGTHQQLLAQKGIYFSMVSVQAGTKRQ

SMILES: CCOP(=S)(OCC)Oc1nc(Cl)c(Cl)cc1Cl [CHLORPYRIFOS]
- Activity [1]: substrate [+]; also recorded: is not a substrate [-]
- Activity [2]: inducer [+]
- Activity [3]: inducer [+]
- Activity [4]: inducer [+]
- Activity [5]: inducer [+]
- Activity [6]: inducer [+]
